Measured values published in the Kinase Knowledgebase extract (Sharma et al. 2016).
Converted amounts (≈) assume the structure as drawn. Values belong to the molecule of their own block, whether it stands above or below them.

Tests used:
[1] = target: PIK3CA (human) (UniProt P42336); assay: Assessment of PI3K Dependent Phosphorylation of p-AKT(T308) in PC3 Cells; conditions: pc-3
[2] = target: MAPK14 (UniProt Q16539); assay: p38 Inhibition
[3] = target: MAPK14 (UniProt Q16539); assay: Inhibition of p38 Kinase Activity
[4] = target: EGFR (human) (UniProt P00533); conditions: hn5
[5] = target: EGFR (UniProt P00533)
[6] = target: EGFR (human) (UniProt P00533); conditions: a431
[7] = target: MAPK14 (human) (UniProt Q16539); assay: TNF Inhibition (PBMC); conditions: concentration not given here
[8] = target: MAPK14 (UniProt Q16539); assay: MAPK14 Kinase Inhibition
[9] = target: EGFR (UniProt P00533); remark: listed apart in the source
[10] = target: CDK2 (human) (UniProt P24941); assay: Enzyme Assay
[11] = target: CDK2 (human) (UniProt P24941); assay: Enzyme Assay; remark: listed apart in the source
[12] = target: EGFR (murine) (UniProt P00533); conditions: f/l herc cells
[13] = target: EGFR (murine) (UniProt P00533); conditions: nih 3t3
[14] = target: MAPK14 (UniProt Q16539); assay: p38 Inhibition Assay (in Vitro)
[15] = target: ROCK2 (UniProt O75116); assay: Inhibition of ROCK2 Kinase Activity
[16] = target: EGFR (human) (UniProt P00533)
[17] = target: MAPK14 (UniProt Q16539); assay: Assessment of MAPK14 Kinase Activity
[18] = target: EGFR (Balb/c mice) (UniProt P00533)
[19] = target: MAPK14 (human) (UniProt Q16539); assay: Inhibition of TNF-alpha Production in LPS Stimulated Whole Blood; conditions: blood cells
[20] = target: EGFR (human) (UniProt P00533); remark: listed apart in the source
[21] = target: PIK3CG (UniProt P48736); assay: Inhibition of PIK3CG Kinase Activity
[22] = target: EGFR (UniProt P00533); remark: listed apart in the source

Chain of MAPK14 (Q16539 whole entry, looked up): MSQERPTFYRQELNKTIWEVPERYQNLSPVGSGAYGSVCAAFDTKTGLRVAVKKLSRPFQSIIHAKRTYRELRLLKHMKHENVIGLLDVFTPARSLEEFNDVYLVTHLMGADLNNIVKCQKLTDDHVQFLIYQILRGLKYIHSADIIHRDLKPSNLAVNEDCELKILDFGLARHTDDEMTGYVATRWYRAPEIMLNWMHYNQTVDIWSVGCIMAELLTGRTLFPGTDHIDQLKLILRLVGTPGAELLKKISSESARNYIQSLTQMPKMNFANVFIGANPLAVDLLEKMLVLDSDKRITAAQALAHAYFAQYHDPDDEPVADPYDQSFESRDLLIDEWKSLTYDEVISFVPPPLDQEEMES
Chain of MAPK14 (human) (Q16539 whole entry, looked up): as above
Chain of EGFR (murine) (P00533 whole entry, looked up): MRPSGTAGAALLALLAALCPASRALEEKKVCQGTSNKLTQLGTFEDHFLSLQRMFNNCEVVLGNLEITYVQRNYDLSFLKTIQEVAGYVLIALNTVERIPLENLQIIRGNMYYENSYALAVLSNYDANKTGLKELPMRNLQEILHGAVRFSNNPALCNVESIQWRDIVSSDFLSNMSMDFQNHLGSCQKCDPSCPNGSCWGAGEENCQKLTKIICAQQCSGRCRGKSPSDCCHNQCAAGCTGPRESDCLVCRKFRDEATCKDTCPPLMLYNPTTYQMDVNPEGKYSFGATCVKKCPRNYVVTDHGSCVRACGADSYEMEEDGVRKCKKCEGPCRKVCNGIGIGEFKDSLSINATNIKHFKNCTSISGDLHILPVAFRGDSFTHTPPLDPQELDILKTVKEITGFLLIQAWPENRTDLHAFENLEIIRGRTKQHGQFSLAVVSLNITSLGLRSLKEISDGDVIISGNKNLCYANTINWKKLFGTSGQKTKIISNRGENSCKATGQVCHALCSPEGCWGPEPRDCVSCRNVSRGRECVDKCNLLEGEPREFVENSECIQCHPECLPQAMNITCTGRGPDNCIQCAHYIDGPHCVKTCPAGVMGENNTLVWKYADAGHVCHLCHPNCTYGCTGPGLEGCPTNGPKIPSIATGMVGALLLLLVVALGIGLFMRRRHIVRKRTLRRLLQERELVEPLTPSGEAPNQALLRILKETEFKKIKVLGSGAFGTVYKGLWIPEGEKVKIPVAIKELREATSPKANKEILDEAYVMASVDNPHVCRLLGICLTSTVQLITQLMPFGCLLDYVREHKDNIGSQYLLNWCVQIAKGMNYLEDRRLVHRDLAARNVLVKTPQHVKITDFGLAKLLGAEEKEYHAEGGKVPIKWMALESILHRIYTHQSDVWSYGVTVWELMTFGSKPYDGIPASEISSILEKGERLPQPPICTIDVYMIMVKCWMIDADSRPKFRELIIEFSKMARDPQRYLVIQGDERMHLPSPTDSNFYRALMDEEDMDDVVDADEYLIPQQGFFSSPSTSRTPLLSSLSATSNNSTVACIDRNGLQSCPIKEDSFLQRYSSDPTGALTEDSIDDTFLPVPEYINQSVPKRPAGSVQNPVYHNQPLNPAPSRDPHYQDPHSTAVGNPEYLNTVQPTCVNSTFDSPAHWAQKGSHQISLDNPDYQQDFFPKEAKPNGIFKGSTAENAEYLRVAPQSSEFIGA
Chain of EGFR (human) (P00533 whole entry, looked up): as above
Chain of EGFR (P00533 whole entry, looked up): as above
Chain of PIK3CA (human) (P42336 whole entry, looked up): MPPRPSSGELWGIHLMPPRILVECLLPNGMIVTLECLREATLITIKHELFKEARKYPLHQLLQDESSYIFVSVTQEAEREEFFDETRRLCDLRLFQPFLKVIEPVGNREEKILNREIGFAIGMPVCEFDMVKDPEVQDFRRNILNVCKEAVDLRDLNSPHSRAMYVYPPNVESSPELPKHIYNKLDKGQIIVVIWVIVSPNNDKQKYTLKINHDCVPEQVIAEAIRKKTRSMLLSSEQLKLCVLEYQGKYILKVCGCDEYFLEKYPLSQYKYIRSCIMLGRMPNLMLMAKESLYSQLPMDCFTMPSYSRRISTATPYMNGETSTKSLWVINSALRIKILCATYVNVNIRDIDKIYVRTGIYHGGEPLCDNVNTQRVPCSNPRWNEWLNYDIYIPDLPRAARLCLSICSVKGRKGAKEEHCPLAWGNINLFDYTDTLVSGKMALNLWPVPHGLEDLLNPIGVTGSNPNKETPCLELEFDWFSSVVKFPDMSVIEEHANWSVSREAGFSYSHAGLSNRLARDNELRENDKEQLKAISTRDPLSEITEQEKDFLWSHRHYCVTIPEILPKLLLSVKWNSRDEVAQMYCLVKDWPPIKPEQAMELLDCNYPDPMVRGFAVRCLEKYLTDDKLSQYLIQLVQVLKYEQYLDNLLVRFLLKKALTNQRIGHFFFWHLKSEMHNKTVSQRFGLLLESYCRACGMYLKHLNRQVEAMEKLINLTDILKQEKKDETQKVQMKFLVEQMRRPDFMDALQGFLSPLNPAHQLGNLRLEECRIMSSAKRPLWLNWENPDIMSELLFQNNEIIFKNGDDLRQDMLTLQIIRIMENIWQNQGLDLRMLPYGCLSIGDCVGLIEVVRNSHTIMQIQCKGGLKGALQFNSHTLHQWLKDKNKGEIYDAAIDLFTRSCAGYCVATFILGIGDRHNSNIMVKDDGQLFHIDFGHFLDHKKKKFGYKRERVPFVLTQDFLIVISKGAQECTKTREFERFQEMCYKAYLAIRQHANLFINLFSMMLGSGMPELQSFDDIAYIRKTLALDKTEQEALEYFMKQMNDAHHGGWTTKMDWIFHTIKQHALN

Structure (SMILES): CSc1c(-c2ccncc2)nc(-c2ccc(NC(=O)Nc3ccc(C(N)=O)cc3)cc2)nc1N1CCOCC1
IC50 [1]: < 10 nM

Structure (SMILES): O=C(NCc1ccc(S(=O)(=O)NNC(=O)c2csc(COc3ccccc3Cl)n2)s1)c1ccc(Cl)cc1
IC50 [2]: > 30000 nM
IC50 [3]: > 30000 nM

Structure (SMILES): CC(=O)OCCCCc1nc(-c2ccncc2)c(-c2ccc(F)cc2)n1COCC[Si](C)(C)C
inhibition [7]: 0%

Structure (SMILES): Nc1nccc(-c2cccnc2-c2ccc(F)cc2)n1
IC50 [8]: < 50000 nM

Structure (SMILES): N#Cc1cnc2c(sc3ccc([N+](=O)[O-])cc32)c1Nc1cccc(Br)c1
IC50 [9]: 10000 nM

Structure (SMILES): CC[C@@H](CO)Nc1cc(NCc2ccc(-c3ccccn3)cc2)c2ncn(C(C)C)c2n1
IC50 [10]: 150 nM
IC50 [11]: 100 nM

Structure (SMILES): O=C(NCc1ccc(S(=O)(=O)NNC(=O)c2csc(-c3ccc(C4SCCS4)cc3)n2)s1)c1ccc(Cl)cc1
IC50 [2]: > 30000 nM
IC50 [3]: > 30000 nM

Structure (SMILES): Fc1ccc(-c2ncccc2-c2ccnc(Oc3ccccc3)n2)cc1
IC50 [8]: < 50000 nM

Structure (SMILES): O=c1[nH]c2ccc(Sc3ccccc3)nc2[nH]1
IC50 [13]: > 100000 nM

Structure (SMILES): O=C(NCc1ccc(S(=O)(=O)N2CCC(C(=O)c3ccc(F)cc3F)CC2)s1)c1ccc(Cl)cc1
IC50 [14]: > 30000 nM

Structure (SMILES): NC(=O)c1cccn(Cc2ccc(S(=O)(=O)NNC(=O)CCCNc3ncc(C(F)(F)F)cc3Cl)s2)c1=O
IC50 [3]: > 30000 nM

Structure (SMILES): Oc1cc2nc(-c3cccs3)c(-c3cccs3)nc2cc1O
inhibition ([15]; concentration not given here): -18%

Structure (SMILES): CCOc1cc2ncc(C#N)c(Nc3ccc(OCc4ccccn4)c(Cl)c3)c2cc1NC(=O)C=C1CCNCC1
EC50 [6]: 160 nM

Structure (SMILES): CC(C)(CO)Nc1ncc2cc(-c3ccccc3Cl)c3nccn3c2n1
IC50 [17]: 18.8 nM

Structure (SMILES): Cc1ccc2ncnc(Nc3cccc(Cl)c3)c2c1
LD50 [18]: > 400 mg/kg

Structure (SMILES): C=CCOCCn1c(SC)nc(-c2ccc(F)cc2)c1-c1ccnc(NC(C)=O)c1
IC50 [19]: > 100000 nM

Structure (SMILES): CS(=O)(=O)N1CCC(Nc2ncc3c(n2)N2CCN=C2C(c2ccccc2Cl)=C3)CC1
IC50 [17]: 2.7 nM

Structure (SMILES): O=C(/C=C/CN1CC2CC1CO2)Nc1cc2c(Nc3ccc(F)c(Cl)c3)ncnc2cc1OC1CCCC1 (stereo unspecified)
IC50 [20]: 0.5 nM

Structure (SMILES): COc1nccc(-c2cccnc2-c2ccc(F)cc2)n1
IC50 [8]: < 50000 nM

Structure (SMILES): O[C@H]1CC[C@H](Nc2ncc3c(n2)N2CCN=C2N(c2ccccc2Cl)C3)CC1
IC50 [17]: 6620 nM

Structure (SMILES): O=C(/C=C/CN1CC2CC1CO2)Nc1cc2c(Nc3ccc(F)c(Cl)c3)ncnc2cc1O[C@H]1CCOC1 (stereo partly specified)
IC50 [20]: 0.5 nM

Structure (SMILES): N#C/C(=C1/Nc2ccccc2S1)c1ccnc(NCCc2cccnc2)n1
IC50 [15]: 5000 to 10000 nM
IC50 [21]: > 10000 nM

Structure (SMILES): CN(C)CCCCN1CCOc2cc3ncc(C#N)c(Nc4ccc(F)c(Cl)c4)c3cc21
IC50 [22]: 5 nM

Structure (SMILES): N#Cc1cnc2cc3c(cc2c1Nc1ccc(F)c(Cl)c1)N(C(=O)/C=C/CBr)CCO3.N#Cc1cnc2cc3c(cc2c1Nc1ccc(F)c(Cl)c1)N(C(=O)/C=C/CCl)CCO3
IC50 [22]: 1000 nM
inhibition ([22]; concentration not given here): 29.9%

Structure (SMILES): C[Si](C)(C)CCOCn1c(CCCCO)nc(-c2ccncc2)c1-c1ccc(F)cc1
inhibition [7]: 0%

Structure (SMILES): CSc1nccc(-c2cccnc2-c2ccc(F)cc2)n1
IC50 [8]: < 50000 nM

Second part, the molecule after the results:

IC50 [4]: 350 nM
Structure (SMILES): NC(=O)[C@H]1CCCN1Cc1ccc(-c2cc3c(Nc4ccc(OCc5ccccc5)cc4)ncnc3cn2)o1

IC50 [5]: 1690 nM
Structure (SMILES): Cc1cccc(Nc2ncnc3ccc(N(C)C(=O)NCCCl)cc23)c1

EC50 [6]: 13 nM
Structure (SMILES): COCCOc1cc2ncnc(Nc3ccc4[nH]ccc4c3)c2cc1NC(=O)C=C1CCNCC1

IC50 [5]: 81 nM
Structure (SMILES): CN(C(=O)NCCCl)c1ccc2ncnc(Nc3cccc(Cl)c3)c2c1

IC50 [4]: 460 nM
Structure (SMILES): OCc1ccc(-c2cc3c(Nc4ccc(OCc5ccccc5)cc4)ncnc3cn2)o1

IC50 [12]: 77 nM
Structure (SMILES): COC(=O)CCC1CN(CC(=O)OC)CCN1CCOc1cc2c(Nc3cccc(Br)c3)ncnc2cc1OC (stereo unspecified)

IC50 [16]: 0.058 µg/mL (≈ 0.123 µM)
Structure (SMILES): CN1CCN(CC2COc3cc4ncnc(Nc5cccc(Br)c5)c4cc3O2)CC1 (stereo unspecified)

EC50 [6]: 300 nM
Structure (SMILES): O=C(C=C1CCNCC1)Nc1ccc2ncnc(Nc3ccc4[nH]ccc4c3)c2c1

IC50 [12]: 100 nM
Structure (SMILES): CCOC(=O)CN(C)CCOc1cc2c(Nc3cccc(Br)c3)ncnc2cc1OC

IC50 [12]: 70 nM
Structure (SMILES): CCOC(=O)CN(CCOc1cc2c(Nc3cccc(Br)c3)ncnc2cc1OC)CC(=O)OCC

IC50 [9]: 1.5 nM
Structure (SMILES): N#Cc1cnc2cc3nc[nH]c3cc2c1Nc1cccc(Br)c1

IC50 [9]: 10000 nM
Structure (SMILES): N#Cc1cnc2c(sc3ccc(N)cc32)c1Nc1cccc(Br)c1

IC50 [16]: 0.046 µg/mL (≈ 0.101 µM)
Structure (SMILES): Brc1cccc(Nc2ncnc3cc4c(cc23)OC(CN2CCOCC2)CO4)c1 (stereo unspecified)

IC50 [16]: 0.021 µg/mL (≈ 0.0442 µM)
Structure (SMILES): OCCN(CCO)CC1COc2cc3ncnc(Nc4cccc(Br)c4)c3cc2O1 (stereo unspecified)

IC50 [9]: 10000 nM
Structure (SMILES): C=CC(=O)Nc1ccc2sc3c(Nc4cccc(Br)c4)c(C#N)cnc3c2c1
